For 22 compounds, IC50 and responders results are on record in patent US10597375B2, “Halogen-substituted heterocyclic compound” (UBE INDUSTRIES, LTD., priority 2012, dated 2020).

The subject of experiment [1] is A2058 human melanoma cells. Put plainly: Cell migration test (LPA-induced, Chemo-Tx). Format: cell-based. The conditions noted are these: LPA 100 nM, 3 hours, read-out: IC50: concentration of the test compound which inhibits the cell migration activity of LPA by 50%. Here is the method:
The cell migration test was carried out using Chemo-Tx (registered trademark) (116-8, Neuro Probe). A2058 human melanoma cells (obtained from European Collection of Cell Culture) were cultured in a serum-free EMEM medium for 24 hours, and then re-suspended in a 0.1% BSA-containing DMEM medium to obtain a cell suspension. The test compound dissolved in DMSO in various concentration was each added to the cell suspension, and the suspension was cultured at 37° C. for 15 minutes (the final DMSO concentration of 0.5%). LPA dissolved in a 0.1% BSA-containing DMEM medium (the final concentration of 100 nM) was added to Chemo-Tx 96 well plate, and a Chemo-Tx filter which had been coated with 0.001% Fibronectin on the both surfaces was put on the plate. The suspension of cultured cells (25,000 cells) was added onto the upper surface of the filter and further cultured at 37° C. for 3 hours, and the cells on the upper surface of the filter were removed. After the filter was removed and dried, the cells which had migrated to the lower surface of the filter were stained using Diff-Quik stain (16920, Sysmex). The absorbance of the filter (570 nm) was measured and the concentration of the test compound which inhibits the cell migration activity of LPA by 50%, (1050) was determined by non-linear regression analysis using EXSAS (version 7.6.0, Arm Systex).

Experiment [2] has as its system LPA-induced histamine release. Kind of experiment: LPA-induced histamine release test in mouse. The conditions noted are these: male CD1 mice; oral dose of 10 mg/kg; LPA 300 μg/mouse via tail vein 4 hours after administration; blood 2 minutes after LPA; read-out: efficacy rate (rate of individuals which showed the inhibition rate of 80% or more of plasma histamine). Format: in vivo. Here is the method: LPA-Induced Histamine Release Test in Mouse
LPA-induced histamine release test in mouse was carried out according to a method by Swaney et al. (The Journal of Pharmacology and Experimental Therapeutics, 336 (2011), pages 693-700). The test compound was suspended in 0.5% methylcellulose solution (133-14255, Wako), and orally administered to male CD1 mice (body weight: 30 to 40 g, supplied by Charles River Laboratories Japan) at a dose of 10 mL/kg. 4 hours after administration, LPA (857130P, Avanti) dissolved in a 0.1% BSA-containing PBS was administered via the tail vein (300 μg/mouse). Immediately, the mouse was anesthetized with isoflurane, and blood was collected via a vein 2 minutes after the administration of LPA. The blood was put into a test tube containing EDTA, and centrifuged at 4° C., 2,000×g, for 10 minutes to obtain the plasma.
The histamine concentration in the plasma was measured by EIA kit (62HTMPEB, Cisbio Bioassays).

SMILES strings stand for the structures. A value given as a limit tells only on which side of the number the result lay.

As to `Cc1cscc1C(C)OC(=O)Nc1cc(F)sc1-c1ccc(-c2ccc(C3(C(=O)O)CC3)cc2)cc1` (racemic) [I-649, (RS)-1-{4′-[5-Fluoro-3-({[1-(4-methylthiophen-3-yl)ethoxy]carbonyl}amino)thiophen-2-yl]-[1,1′-biphenyl]-4-yl}cyclopropanecarboxylic acid], the IC50 in experiment [1] was at most 200 nM. Besides, in experiment [2], the responders at 10 mg/kg is at least 50%.
With `COc1cc(-c2sc(F)cc2NC(=O)O[C@H](C)c2ccc(F)cc2)ccc1-c1ccc(C2(C(=O)O)CC2)cc1` [I-432, (R)-1-{4′-[5-Fluoro-3-({[1-(4-fluorophenyl)ethoxy]carbonyl}amino)thiophen-2-yl]-2′-methoxy-[1,1′-biphenyl]-4-yl}cyclopropanecarboxylic acid], in experiment [1], the IC50 was at most 200 nM. Also, the responders at 10 mg/kg in experiment [2] was at least 50%.
The matching figures for `COc1cc(-c2sc(F)cc2NC(=O)O[C@H](C)c2ccccc2)ccc1-c1ccc(C2(C(=O)O)CC2)cc1` [I-420]: at most 200 nM and at least 50%.
With `COc1cc(-c2sc(F)cc2NC(=O)OC(C)c2ccsc2)ccc1-c1ccc(C2(C(=O)O)CC2)cc1` (racemic) [I-811, (RS)-1-{4′-[5-Fluoro-3-({[1-(thiophen-3-yl)ethoxy]carbonyl}amino)thiophen-2-yl]-2′-methoxy-[1,1′-biphenyl]-4-yl}cyclopropanecarboxylic acid], the IC50 in experiment [1] was at most 200 nM. Moreover, in experiment [2], the responders at 10 mg/kg is at least 50%.
Take `COc1cc(-c2sc(Cl)cc2NC(=O)O[C@H](C)c2ccc(F)cc2)ccc1-c1ccc(C2(C(=O)O)CC2)cc1` [I-362, (R)-1-{4′-[5-Chloro-3-({[1-(4-fluorophenyl)ethoxy]carbonyl}amino)thiophen-2-yl]-2′-methoxy-[1,1′-biphenyl]-4-yl}cyclopropanecarboxylic acid]: the IC50 in experiment [1] was at most 200 nM. Also, in experiment [2], the responders at 10 mg/kg is at least 50%.
The matching figures for `Cc1cscc1[C@@H](C)OC(=O)Nc1cc(F)sc1-c1ccc(-c2ccc(C3(C(=O)O)CC3)cc2)cc1` [I-650, (R)-1-{4′-[5-Fluoro-3-({[1-(4-methylthiophen-3-yl)ethoxy]carbonyl}amino)thiophen-2-yl]-[1,1′-biphenyl]-4-yl}cyclopropanecarboxylic acid]: at most 200 nM and at least 50%.
`COc1cc(-c2sc(Cl)cc2NC(=O)O[C@H](C)c2ccccc2Cl)ccc1-c1ccc(C2(C(=O)O)CC2)cc1` [I-366, (R)-1-{4′-[5-Chloro-3-({[1-(2-chlorophenyl)ethoxy]carbonyl}amino)thiophen-2-yl]-2′-methoxy-[1,1′-biphenyl]-4-yl}cyclopropanecarboxylic acid]: in experiment [1], the IC50 was at most 200 nM. Moreover, the responders at 10 mg/kg in experiment [2] is at least 50%.
Consider `COc1cc(-c2sc(F)cc2NC(=O)O[C@H](C)c2ccccc2F)ccc1-c1ccc(C2(C(=O)O)CC2)cc1` [I-424, (R)-1-{4′-[5-Fluoro-3-({[1-(2-fluorophenyl)ethoxy]carbonyl}amino)thiophen-2-yl]-2′-methoxy-[1,1′-biphenyl]-4-yl}cyclopropanecarboxylic acid], for which, in experiment [1], the IC50 is at most 200 nM. Further, the responders at 10 mg/kg in experiment [2] is at least 50%.
For `CC(OC(=O)Nc1cc(F)sc1-c1ccc(-c2ccc(C3(C(=O)O)CC3)cc2)cc1)c1cscc1Cl` (racemic) [I-657, (RS)-1-{4′-[3-({[1-(4-Chlorothiophen-3-yl)ethoxy]carbonyl}amino)-5-fluorothiophen-2-yl]-[1,1′-biphenyl]-4-yl}cyclopropanecarboxylic acid], the IC50 in experiment [1] was at most 200 nM. Besides, the responders at 10 mg/kg in experiment [2] was at least 50%.
As for `COc1cc(-c2sc(F)cc2NC(=O)O[C@H](C)c2cccc(F)c2)ccc1-c1ccc(C2(C(=O)O)CC2)cc1` [I-428, (R)-1-{4′-[5-Fluoro-3-({[1-(3-fluorophenyl)ethoxy]carbonyl}amino)thiophen-2-yl]-2′-methoxy-[1,1′-biphenyl]-4-yl}cyclopropanecarboxylic acid], in experiment [1], the IC50 is at most 200 nM. Besides, the responders at 10 mg/kg in experiment [2] is at least 50%.
In the case of `COc1cc(-c2sc(Cl)cc2NC(=O)O[C@H](C)c2ccc(F)cc2F)ccc1-c1ccc(C2(C(=O)O)CC2)cc1` [I-378, (R)-1-{4′-[5-Chloro-3-({[1-(2,4-difluorophenyl)ethoxy]carbonyl}amino)thiophen-2-yl]-2′-methoxy-[1,1′-biphenyl]-4-yl}cyclopropanecarboxylic acid], the IC50 in experiment [1] is at most 200 nM. Moreover, in experiment [2], the responders at 10 mg/kg was at least 50%.
On to `COc1cc(-c2sc(F)cc2NC(=O)O[C@H](C)c2cc(F)ccc2F)ccc1-c1ccc(C2(C(=O)O)CC2)cc1` [I-458, (R)-1-{4′-[3-({[1-(2,5-Difluorophenyl)ethoxy]carbonyl}amino)-5-fluorothiophen-2-yl]-2′-methoxy-[1,1′-biphenyl]-4-yl}cyclopropanecarboxylic acid], for which, in experiment [1], the IC50 is at most 200 nM. In addition, the responders at 10 mg/kg in experiment [2] was at least 50%.
`COc1cc(-c2sc(Cl)cc2NC(=O)O[C@H](C)c2ccsc2)ccc1-c1ccc(C2(C(=O)O)CC2)cc1` [I-780, (R)-1-{4′-[5-Chloro-3-({[1-(thiophen-3-yl)ethoxy]carbonyl}amino)thiophen-2-yl]-2′-methoxy-[1,1′-biphenyl]-4-yl}cyclopropanecarboxylic acid]: the IC50 in experiment [1] is at most 200 nM. For the same compound, the responders at 10 mg/kg in experiment [2] was at least 50%.
In the case of `COc1cc(-c2sc(Cl)cc2NC(=O)O[C@H](C)c2ccccc2F)ccc1-c1ccc(C2(C(=O)O)CC2)cc1` [I-354, (R)-1-{4′-[5-Chloro-3-({[1-(2-fluorophenyl)ethoxy]carbonyl}amino)thiophen-2-yl]-2′-methoxy-[1,1′-biphenyl]-4-yl}cyclopropanecarboxylic acid], the IC50 in experiment [1] is at most 200 nM. In experiment [2], the responders at 10 mg/kg is at least 50%.
For `COc1cc(-c2sc(F)cc2NC(=O)O[C@H](C)c2ccccc2Cl)ccc1-c1ccc(C2(C(=O)O)CC2)cc1` [I-442, (R)-1-{4′-[3-({[1-(2-Chlorophenyl)ethoxy]carbonyl}amino)-5-fluorothiophen-2-yl]-2′-methoxy-[1,1′-biphenyl]-4-yl}cyclopropanecarboxylic acid], the IC50 in experiment [1] was at most 200 nM. For the same compound, the responders at 10 mg/kg in experiment [2] is at least 50%.
Turning to `C[C@@H](OC(=O)Nc1cc(Cl)sc1-c1ccc(-c2ccc(C3(C(=O)O)CC3)cc2)cc1)c1cccs1` [I-630, (R)-1-{4′-[5-Chloro-3-({[1-(thiophen-2-yl)ethoxy]carbonyl}amino)thiophen-2-yl]-[1,1′-biphenyl]-4-yl}cyclopropanecarboxylic acid], in experiment [1], the IC50 is at most 200 nM.
Take `CC(OC(=O)Nc1cc(Cl)sc1-c1ccc(-c2ccc(C3(C(=O)O)CC3)cc2)cc1)c1ccsn1` (racemic) [I-621]: the IC50 in experiment [1] is at most 200 nM.
Turning to `COc1cc(-c2sc(F)cc2NC(=O)OC(C)c2cscc2C)ccc1-c1ccc(C2(C(=O)O)CC2)cc1` (racemic) [I-815, (RS)-1-{4′-[5-Fluoro-3-({[1-(4-methylthiophen-3-yl)ethoxy]carbonyl}amino)thiophen-2-yl]-2′-methoxy-[1,1′-biphenyl]-4-yl}cyclopropanecarboxylic acid], in experiment [1], the IC50 was at most 200 nM.
As for `C[C@@H](OC(=O)Nc1cc(Cl)sc1-c1ccc(-c2ccc(C3(C(=O)O)CC3)cc2)cc1)c1ccc(F)c(F)c1` [I-72, (R)-1-{4′-[5-Chloro-3-({[1-(3,4-difluorophenyl)ethoxy]carbonyl}amino)thiophen-2-yl]-[1,1′-biphenyl]-4-yl}cyclopropanecarboxylic acid], in experiment [1], the IC50 was at most 200 nM.
`COc1cc(-c2sc(F)cc2NC(=O)O[C@H](C)c2ccc(F)cc2Cl)ccc1-c1ccc(C2(C(=O)O)CC2)cc1` [I-466, (R)-1-{4′-[3-({[1-(2-Chloro-4-fluorophenyl)ethoxy]carbonyl}amino)-5-fluorothiophen-2-yl]-2′-methoxy-[1,1′-biphenyl]-4-yl}cyclopropanecarboxylic acid]: the IC50 in experiment [1] was at most 200 nM.
Turning to `C[C@@H](OC(=O)Nc1cc(Cl)sc1-c1ccc(-c2ccc(C3(C(=O)O)CC3)cc2)c([N+](=O)[O-])c1)c1ccccc1Cl` [I-502, (R)-1-{4′-[5-Chloro-3-({[1-(2-chlorophenyl)ethoxy]carbonyl}amino)thiophen-2-yl]-2′-nitro-[1,1′-biphenyl]-4-yl}cyclopropanecarboxylic acid], in experiment [1], the IC50 is at most 200 nM.
Turning to `COc1cc(-c2sc(Cl)cc2NC(=O)O[C@H](C)c2cccs2)ccc1-c1ccc(C2(C(=O)O)CC2)cc1` [I-808, (R)-1-{4′-[5-Chloro-3-({[1-(thiophen-2-yl)ethoxy]carbonyl}amino)thiophen-2-yl]-2′-methoxy-[1,1′-biphenyl]-4-yl}cyclopropanecarboxylic acid], in experiment [1], the IC50 was at most 200 nM.
